Measured values: patent US20090054376A1, “BENZOFURAN DERIVATIVES WITH THERAPEUTIC ACTIVITIES” (Pharmos Corporation, priority 2005, published 2009)

How the values were obtained:
[1] = target: T1, Human CB1 Receptor (Homo sapiens, UniProt P21554); assay: [35S]GTPγS-binding assay, hCB1; format: biochemical; details: NB = no binding; for Emax: upper plateau of curve
T1 construct: expressed in transfected cells; host or cells: HEK-293 cells (membranes)
Procedure: (§1) Functional activity of compounds of the invention toward the cannabinoid receptors was determined by stimulation of [^35S]-GTPγS binding using membranes from HEK-293 cells expressing the hCB1 receptor and membranes expressing the hCB2 receptor derived from either Sf9 (PerkinElmer) or from HEK-293 cells. Activities were compared to that of the known cannabinoid full agonist CP55940 (Alexis). The purpose of this experiment is to determine the potency of the compounds of the invention as agonists or antagonists toward each of the receptor tested.
(§2) [^35S]-GTPγS binding reactions were performed at 30° C. in 96-well plates containing 5-10 μg membrane protein suspended in 0.1 ml binding buffer [20 mM HEPES-NaOH, pH 7.4, 5 mM MgCl2, 100 mM NaCl, 0.2% (w/v) bovine serum albumin] supplemented with 50 μM GDP and 0.06 nM-10 μM of the compound being tested. Binding was initiated by the addition of [^35S]GTPγS (0.3 nM final concentration). Incubations were performed for 90 minutes and were terminated by filtration on GF/C filter plates (PerkinEimer). Filters were washed ten times with ice-cold wash buffer (20 mM HEPES-NaOH, pH 7.4, 10 mM sodium pyrophosphate). Non-specific binding was measured in the presence of 15 μM GTPγS.
(§3) Assays were performed in duplicates. Data was analyzed by plotting on the X axis the log concentration against percent of specific [^35S]GTPγS binding out of basal [^35S]GTPγS binding on the Y axis, non-linear regression is then performed using GraphPad Prism, version 3.0 (GraphPad, San Diego, Calif.) to calculate the EC50 and Emax of the compound. The EC50 value represents the concentration at which there is 50% [^35S]GTPγS binding and the Emax value the upper plateau of the curve.

[2] = target: T2, Human CB2 Receptor (Homo sapiens, UniProt P34972); assay: [35S]GTPγS-binding assay, hCB2; format: biochemical; details: for agonistic activity toward cannabinoid receptors (in words): hCB1 and hCB2
T2 construct: host or cells: Sf9 or HEK-293 cells (membranes)
Procedure: as §1, §2, §3

[3] = test system: visceral pain writhing responses; assay: Visceral pain, acetic acid induced writhing responses; format: in vivo, Male ICR mice; details: Mus musculus, iv, single dose 2 mg/kg i.v., compared to untreated group; read-out: Percent Inhibition of Visceral Pain Writhing Responses
Procedure: Male ICR mice (average body weight 25 g, Harlan, Israel) were pretreated by i.v. injection at volume dose of 5 ml/kg of vehicle, control and test compounds at various doses. Other routes of administration were tested for selected compounds including i.m. or s.c. injections at volume dose of 2.5 ml/kg and p.o. gavage at volume dose of 5 ml/kg. Compounds were dissolved in CREMOPHOR®:Ethanol and diluted 1:20 in saline prior to injection or gavage. Compounds administered i.v. were injected fifteen minutes before pain induction, whereas compounds administered i.m., s.c. or p.o. were supplied thirty minutes before pain induction, unless otherwise indicated. Each treatment group, except for controls comprising at least 30 animals, was composed of at least 6 animals. Fifteen or thirty minutes after drug administration, depending on the route of administration, the mice were injected i.p. with 10 ml/kg of 0.6% acetic acid and the number of visceral pain related behaviors (writhing movements globally defined as WR, i.e. stretching, contractions of the abdomen accompanied by an elongation of the body and extension of the hind limbs) was counted over a period of 5 minutes, starting 5 minutes after the acetic acid administration. These visceral pain related behaviors were globally defined as writhing responses (WR). The results are expressed as mean number of writhing responses ±SEM. Data were analyzed using analysis of variance (ANOVA) followed by post-hoc Fisher test.

[4] = test system: carrageenan induced inflammatory pain and paw edema; assay: Inflammatory pain and paw edema induced by carrageenan; format: in vivo, Male Sprague Dawley rats; details: Rattus norvegicus, ip; 10 mg/kg i.p., 3 hours after carrageenan, reduction in paw swelling; read-out: Percent Inhibition of Inflammatory Pain Responses, Edema
Procedure: Male Sprague Dawley rats (average body weight 200 g, Harlan, Israel) were transiently sedated by placement on dry ice for the duration of the injections. Rats were injected subcutaneously, in the subplantar region of one (right) paw with 0.1 ml of 2% w/v λ Carrageenan in sterile saline. […] Test compounds were, unless otherwise stated, administered i.p. at initial single dose of 3, 10 or 20 mg/kg, and volume dose of 5 ml/kg, immediately after the carrageenan injection. Selected compounds were also tested p.o. following oral gavage. Vehicle and celecoxib treated animals were used as controls. Each treatment group comprised at least seven animals.
Before induction of inflammatory pain and three hours after injection, the animals reactions to pain stimuli were tested in two systems. The first stimulus was thermal and assessed by the Plantar Test according to Hargreaves, using Ugo Basile Model 7370. The scale was set to an intensity of 50 arbitrary units. The latency time till the animal lift a paw as a reaction to the thermal stimulus was recorded for both the inflamed and non-inflamed hind paws. The second stimulus was mechanical (tactile) and assessed using a Dynamic Plantar Sesthesiomether (Ugo Basile Model 73400-002). […] Finally, the impact on paw edema was assessed. Paw thickness was measured using a dial thickness gauge (Spring-dial, constant low pressure gauge, Mitutoyo, TG/L-1, 0.01 mm) and paw volume was measured using a plethysmometer (model #7150, Ugo Basile, Italy). At the end of the study, animals were euthanized.
The results are measured as the differences between the two hind paws at time 0 and 3 hours both as ALT, for the latency time in the thermal part of the study, and as ΔForce, for the mechanical part of the study. The paw volume is expressed as percent from vehicle treated animals. Results are expressed as mean±SEM for each treatment group and the differences among those groups are analyzed by analysis of variance (ANOVA) followed by post-hoc Tukey's test.
Results refer to i.p. treatment with 10 mg/kg. Results marked with one asterisk refer to a dose 3 mg/kg, whereas two asterisks refer to 20 mg/kg. Celecoxib is included as reference.

[5] = test system: CB1 related cannabimimetic activity; assay: Safety: body temperature, catalepsy, spontaneous locomotor activity, elevated plus maze, sensitivity to touch; format: in vivo, ICR male mice; details: for adverse cannabimimetic activities in any of the parameters monitored: 2 mg/kg i.v.
Procedure: In the present study, impact of compounds of the invention on the central nervous system was measured by monitoring the body temperature, catalepsy and spontaneous locomotor activity of rodents. These activities are part of the Tetrad assays which are indicative, if all parameters are affected, of CB1 mediated activity. In addition, lack of CNS psychomimetic effect was assessed in the elevated plus maze model. Finally, sensitivity to touch was determined in order to evaluate peripheral CB1 related activity.
ICR male mice (average body weight 25 g, Harlan, Israel) were administered the compounds of the invention i.v. at a dose of 2 mg/kg and at a volume dose of 5 ml/kg. The psychoactive cannabinoid HU-210 was used as positive control at the 100-fold lower dose of 0.02 mg/kg i.v. The following measurements were made starting 15 minutes after compound administration. All tests were completed for each animal within approximately 10 minutes. Rectal temperature was monitored using a thermistor probe (YSI model 400, USA). Spontaneous locomotion was assessed using the open field methodology. The number of squares crossed by the animals were recorded and analyzed during a period of three minutes. At the end of the open field test, the animals were tested for catalepsy symptoms. This was carried out by gently forcing the animal to stand on its hind paws when its front paws are holding on an elevated beam. The time for the animal to step down of the beam was measured in seconds. A normal animal withdraws the beam immediately whereas cataleptic animal tend to stay on the beam. The longer the animal stays leaning on the beam, the more cataleptic the animal is. The behavior of the animals was then assessed in the elevated plus maze. The elevated plus maze consists of two open arms and two arms that are enclosed by high walls (arms 30×10 cm, wall height 20 cm). The elevated plus maze is usually elevated 80 cm above the floor. The mouse is placed on the maze head facing an open arm, and the time spent in the different compartments of the maze (open arms, closed arms and central area) are measured for the next 5 minutes. Results are expressed as percent of the time spent in the open arms, normal animals preferring to stay in the closed arms of the maze. Finally, animals were gently touched by an observer blinded for the treatment group and their sensitivity scored according to the following scale: 0 not sensitive, 1 sensitive and 2 highly sensitive. Results are expressed as average±SEM. At the end of the study, the animals were euthanized.

[6] = GTPγS, Human CB2 Receptor, NB = no binding
[7] = GTPγS, Human CB2 Receptor, upper plateau of curve, NB = no binding

T2 sequence (P34972 whole entry): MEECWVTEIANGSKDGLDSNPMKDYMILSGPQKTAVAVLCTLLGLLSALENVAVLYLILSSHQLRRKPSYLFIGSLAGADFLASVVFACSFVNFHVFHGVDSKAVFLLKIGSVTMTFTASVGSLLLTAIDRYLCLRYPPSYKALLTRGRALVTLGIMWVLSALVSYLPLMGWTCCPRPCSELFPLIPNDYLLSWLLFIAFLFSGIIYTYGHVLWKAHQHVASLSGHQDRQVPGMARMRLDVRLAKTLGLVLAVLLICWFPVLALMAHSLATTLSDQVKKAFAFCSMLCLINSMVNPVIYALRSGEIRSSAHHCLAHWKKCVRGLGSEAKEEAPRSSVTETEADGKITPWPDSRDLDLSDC
T1 sequence (P21554 whole entry): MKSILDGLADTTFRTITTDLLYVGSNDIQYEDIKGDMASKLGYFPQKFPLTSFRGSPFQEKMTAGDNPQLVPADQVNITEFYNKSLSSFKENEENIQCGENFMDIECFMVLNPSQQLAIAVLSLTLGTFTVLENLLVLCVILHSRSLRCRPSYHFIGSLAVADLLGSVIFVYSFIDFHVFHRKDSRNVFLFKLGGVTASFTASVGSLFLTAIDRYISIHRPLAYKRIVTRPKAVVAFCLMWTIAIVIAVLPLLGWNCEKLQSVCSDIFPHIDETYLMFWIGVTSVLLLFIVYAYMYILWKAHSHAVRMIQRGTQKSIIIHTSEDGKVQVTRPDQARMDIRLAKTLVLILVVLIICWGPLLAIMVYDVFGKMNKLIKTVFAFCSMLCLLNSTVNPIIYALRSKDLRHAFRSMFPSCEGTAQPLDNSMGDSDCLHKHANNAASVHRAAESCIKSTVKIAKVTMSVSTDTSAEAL

CCCCCCC(C)(C)c1cc(O)c2c(c1)OC1C(O)CCCCC21 (single isomer, unassigned) [Compound C7S-29, 2-(,1-dimethylheptyl)-5,6,7,8,9,9a-hexahydro-4bH-10-oxa-benzo[α]azulen-4,9-diol]
EC50 [1]: 79 nM
Emax [1]: 41%
selectivity toward CB2 ([2]; GTPγS agonism, CB2 versus CB1): non-selective agonist
EC50 [2, 6]: 54 nM
Emax [2, 7]: 60%
agonistic activity toward cannabinoid receptors (in words) ([2]; GTPγS): agonists toward both receptors with some degree of selectivity toward the CB2 receptor
inhibition in vivo at 2 mg/kg [3]: > 90%

CCCCCCC(C)(C)c1cc(O)c2c(c1)OC1C(O)CCCCC21 (single isomer, unassigned) [Compound C7S-30, 2-(,1-dimethylheptyl)-5,6,7,8,9,9a-hexahydro-4bH-10-oxa-benzo[α]azulen-4,9-diol]
EC50 [1]: > 10000 nM
EC50 [2, 6]: 1030 nM
Emax (%) [2, 7]: 66%

CCCCCCC(C)(C)c1ccc([C@@H]2C[C@H](O)CC[C@H]2CCCO)c(O)c1 [CP55940, reference compound]
Emax [1]: 50 to 100%
Emax [2, 7]: 30 to 60%

CCCCCCC(C)(C)c1cc(OC)cc2oc3c(c12)CC(C)(C)CC3=O [Compound C6M-7, 9-(1,1-dimethylheptyl)-7-methoxy-2,2-dimethyl-2,3-dihydro-1H-dibenzofuran-4-one]
inhibition in vivo at 10 mg/kg [4]: 26%
adverse cannabimimetic activities in any of the parameters monitored [5]: None

CCCCCCC(C)(C)c1cc(O)c2c3c(oc2c1)CC(C)(C)CC3 [Compound C6M-10, 3-(1,1-Dimethylheptyl)-7,7-dimethyl-6,7,8,9-tetrahydro-dibenzofuran-1-ol]
EC50 [1]: 5300 nM
Emax [1]: 132%
EC50 [2, 6]: 25 nM
Emax [2, 7]: 72%
agonistic activity toward cannabinoid receptors (in words) ([2]; GTPγS): agonists specific toward the CB2 receptor

CCCCCCC(C)(C)c1cc(O)c2c(c1)OC1C2CCC(C)(C)C1O (centres unmarked) [Compound C6S-8, 3-(1,1-dimethylheptyl)-7,7-dimethyl-5a,6,7,8,9,9a-hexahydro-dibenzofuran-1,6-diol]
inhibition in vivo at 2 mg/kg [3]: 37%
adverse cannabimimetic activities in any of the parameters monitored [5]: None

CCCCCCC(C)(C)c1cc(O)c2c(c1)OC1C(=NO)CCCC21 (centres unmarked) [Compound C6S-27, 7-(1,1-Dimethylheptyl)-9-hydroxy-2,3,4a,9b-tetrahydro-1H-dibenzofuran-4-one oxime]
EC50 [1]: > 10000 nM
EC50 [2, 6]: 5560 nM
Emax [2, 7]: 64%

CCCCCCC(C)(C)c1cc(OC(=O)C=CC(=O)O)c2c(c1)OC1CC(C)(C)CCC21 (centres unmarked) [Compound C6S-37, But-2-enedioic acid mono-[3-(1,1-dimethylheptyl)-7,7-dimethyl-5a,6,7,8,9,9a-hexahydro-dibenzofuran-1-yl]ester]
EC50 [1]: 3970 nM
Emax [1]: 102%
EC50 [2, 6]: 24 nM
Emax [2, 7]: 44%
agonistic activity toward cannabinoid receptors (in words) ([2]; GTPγS): agonists specific toward the CB2 receptor

CC1(C)CCC2c3c(O)cc(C4(CCc5ccccc5)SCCS4)cc3OC2C1 (centres unmarked) [Compound C6S-38, 7,7-dimethyl-3-(2-phenethyl-[1,3]dithiolan-2-yl)-5a,6,7,8,9,9a-hexahydro-dibenzofuran-1-ol]
EC50 [1]: > 10000 nM
EC50 [2, 6]: 184 nM
Emax [2, 7]: 19%

CCCCCCC(C)(C)c1cc(O)c2c(c1)OC1CCCCC(C(=O)O)C21 (stereo not drawn) [Compound C7S-31, 2-(1,1-Dimethylheptyl)-4-hydroxy-5,6,7,8,9,9a-hexahydro-4bH-10-oxa-benzo[α]azulen-5-carboxylic acid]
EC50 [1]: > 10000 nM
EC50 [2, 6]: 641 nM
Emax [2, 7]: 54%

CCCCCCC(C)(C)c1cc(O)c2c(c1)OC(C)(C)[C@@H]1CC=C(CO)C[C@@H]21 [HU-210, reference compound]
less squares crossed ([5]; 0.02 mg/kg i.v.): more than 50%
number of squares crossed (spontaneous locomotor activity) ([5]; 0.02 mg/kg i.v., period of three minutes, vehicle 75.63±6.24): 32.33±10.21
drop of rectal temperature ([5]; 0.02 mg/kg i.v., statistically significant): about 2 °C
sensitivity to touch, average score ([5]; 0.02 mg/kg i.v., scale 0 not sensitive, 1 sensitive, 2 highly sensitive): above 1
rectal temperature ([5]; 0.02 mg/kg i.v., vehicle 38.88±0.11° C.): 36.73±0.29 °C
time spent in the open arms of the elevated plus maze ([5]; 0.02 mg/kg i.v., vehicle about 15%): ~41%
